From patent publication US20060223888A1, “Valproic acid analogues and pharmaceutical composition thereof” (priority 2002, published 2006)
Values belong to the molecule of their own block, whether it stands above or below them.

What was measured:
rat liver = details: cited from earlier work
[1] = system: Maximal Electroshock (MES) seizures; test: Maximal electroshock (MES) test, rats, oral, time to peak effect; assay type: in vivo; details: 50 mg/kg
Description: Anticonvulsant testing was conducted at the antiepileptic screening facility of the National Institute for Neurological Disorders and Stroke in Rockville, Md. Initial tests were done in mice (i.p.) followed by oral and i.p. administration to rats. Neurotoxicity was evaluated with the rotarod test. Maximal electroshock (MES) and subcutaneous methylene tetrazole (SCMET) or pentylene tetrazole (PTZ) were the most common tests performed. Typical procedures are described below. MES Assay. Male CD1/CR mice weighing from 25-35 g are administrated test compounds 15 minutes prior to MES. Mice are challenged by pulsed electrical stimulation (50 mA, 0.4 s duration, pulse width 0.5 ms, 60 pulses/sec) via corneal electrodes to induce seizure. Mice are observed post-stimulation for the onset of tonic seizures, and considered to have a tonic seizure only if there is a prolonged extension (>90° from plane of body) of the hind legs. […] Ten mice are used in each group. A number of VPA analogues and their sodium salts were tested for their efficacy as anticonvulsants and for their toxicity using the MES Assay and rotarod test.

[2] = system: Subcutaneous Methylene Tetrazole (SCMET) seizures; test: Subcutaneous methylene tetrazole (SCMET) test, rats, oral, time to peak effect; assay type: in vivo; details: 75 mg/kg
[3] = Pharmacokinetics and tissue distribution (plasma, liver, brain) after i.p. administration; assay type: in vivo, male Sprague-Dawley rats; details: rat; for Affinity for / accumulation in the liver (in words): FIG. 1, Table 5
PTZ-induced seizures = test: ED50 against PTZ-induced seizures, i.p.; assay type: in vivo; details: Rattus norvegicus, ip, male Sprague-Dawley rats (n = 8)
Excerpt: These compounds were investigated for anticonvulsant activity in mice^13 and rats (see results in Table 4) and found to be equivalent in potency to VPA.

[4] = system: rotarod test (neurotoxicity); test: Rotarod neurotoxicity test (TOX), rats, oral; assay type: in vivo
Description: Anticonvulsant testing was conducted at the antiepileptic screening facility of the National Institute for Neurological Disorders and Stroke in Rockville, Md. Initial tests were done in mice (i.p.) followed by oral and i.p. administration to rats. Neurotoxicity was evaluated with the rotarod test. Maximal electroshock (MES) and subcutaneous methylene tetrazole (SCMET) or pentylene tetrazole (PTZ) were the most common tests performed. Typical procedures are described below.
Rotorod Test. Acute drug induced neurotoxicity is detected in mice using the standard rotorod test. An untreated mouse, when placed on a 6 rpm rotation rod, can maintain its equilibrium for a prolonged period of time.
A number of VPA analogues and their sodium salts were tested for their efficacy as anticonvulsants and for their toxicity using the MES Assay and rotarod test. In particular, the following compounds (as shown in the structures below) were tested: 332059U (sodium salt of VPA), 325071 (known compound, tested for comparison), 325073A (metabolite of VPA), 332060U (4,4-difluoro-2-propylpentanoate, fluorinated analogue of VPA), 341031, and 341032U (conjugated (E,Z)-2,3′-diene VPA analogues).

[5] = children born to mothers treated with VPA; cited from earlier work

Structure (SMILES): C=CCC(CCC)C(=O)O (stereo not shown) [4-ene VPA, 2-propylpent-4-enoic acid]
Lipid accumulation in rat liver (rat liver): induce massive lipid accumulation in rat liver

Distribution to the brain (in words) ([3]; FIG. 1): rapid distribution to the brain
Affinity for / accumulation in the liver (in words) ([3]; listed as (E,Z)-2,3′-diene-VPA): markedly reduced affinities for liver
Structure (SMILES): C/C=C\C(=C/CC)C(=O)[O-].[Na+] [325073A, Sodium (2E)-2-[(1Z)-prop-1-en-1-yl]pent-2-enoate]
MES N/F = number of animals protected relative to number tested ([1]; 0.25 h): 2/4
MES N/F = number of animals protected relative to number tested ([1]; 0.5 h): 0/4
MES N/F = number of animals protected relative to number tested ([1]; 1.0 h): 0/4
MES N/F = number of animals protected relative to number tested ([1]; 2.0 h): 0/4
SCMET N/F = number of animals protected relative to number tested ([2]; 0.25 h): 1/4
SCMET N/F = number of animals protected relative to number tested ([2]; 0.5 h): 0/4
SCMET N/F = number of animals protected relative to number tested ([2]; 1.0 h): 0/4
SCMET N/F = number of animals protected relative to number tested ([2]; 2.0 h): 0/4
SCMET N/F = number of animals protected relative to number tested ([2]; 4.0 h): 0/4
Affinity for / accumulation in the liver (in words) ([3]; listed as (E,Z)-2,3′-diene VPA): significantly reduced affinity for the liver
ED50 (PTZ-induced seizures): 168 mg/kg

Structure (SMILES): CCCC(CCC)C(=O)[O-].[Na+] [332059A, Sodium 2-propylpentanoate, reference compound]
TOX: N/F = number of animals that failed the rotarod test to numbers tested ([4]; 300 mg/kg, 0.25 h): 0/4
TOX: N/F = number of animals that failed the rotarod test to numbers tested ([4]; 300 mg/kg, 0.5 h): 0/4
TOX: N/F = number of animals that failed the rotarod test to numbers tested ([4]; 300 mg/kg, 1.0 h): 0/4
TOX: N/F = number of animals that failed the rotarod test to numbers tested ([4]; 300 mg/kg, 2.0 h): 0/4
TOX: N/F = number of animals that failed the rotarod test to numbers tested ([4]; 300 mg/kg, 4.0 h): 0/4
TOX: N/F = number of animals that failed the rotarod test to numbers tested ([4]; 400 mg/kg, 0.5 h): 0/4
TOX: N/F = number of animals that failed the rotarod test to numbers tested ([4]; 400 mg/kg, 1.0 h): 0/4
TOX: N/F = number of animals that failed the rotarod test to numbers tested ([4]; 400 mg/kg, 2.0 h): 0/4
Neural tube defects leading to spina bifida, share of children born to treated mothers [5]: 1-2%
ED50 (PTZ-induced seizures): 158 mg/kg

Structure (SMILES): C=C/C=C(\CCC)C(=O)O [(E)-2,4-diene-VPA, 2-propylpent-(E)-2,4-dienoic acid]
Lipid accumulation in rat liver (rat liver): induce massive lipid accumulation in rat liver
